This is an account of results in patent US9334280B2, “Synthetic rigidin analogues as anticancer agents, salts, solvates and prodrugs thereof, and method of producing same” (New Mexico Technical Research Foundation, priority 2012, dated 2016).

Structures are written as SMILES. Like-named read-outs stand apart in the source and are kept apart here.

Assay [1] concerns U373 glioblastoma cells. As to the kind of experiment: MTT antiproliferative assay, U373. The note with it: U373 MG. It is filed as cell-based, human. How it is done:
(§1) To evaluate antiproliferative properties of the compounds of Formula I, mitochondrial dehydrogenase activities were measured using the MTT assay. The cell lines were prepared by trypsinizing and seeding […] cells per well into microplates. All compounds were reconstituted in dimethyl sulfoxide (DMSO) at a concentration of either 100 mM or 25 mM prior to treatment. The cells were grown for 24 hrs before treatment at concentrations ranging from 0.004 to 100 microM and incubated for 48 hrs in 200 microL media. 20 microL of MTT reagent in serum free medium (5 mg/mL) was added to each well and incubated further for 2 hrs. Media was removed and the resulting formazan crystals were re-solubilized in 100 microL of DMSO and the optical density (OD) was measured using a Thermomax Molecular Device plate reader at a wavelength of 490 nm. The experiments were performed in quadruplicate and repeated at least twice for each compound per cell line. Cells treated with 0.1% DMSO were used as a negative control, while phenyl arsine oxide (PAO) was used as a positive killing control.
(§2) Human cancer cell lines were obtained from the American Type Culture Collection (ATCC, Manassas, Va., USA), the European Collection of Cell Culture (ECACC, Salisbury, UK) and the Deutsche Sammlung von Mikroorganismen and Zellkulturen (DSMZ, Braunschweig, Germany). Human cervical adenocarcinoma HeLa cells were cultured in DMEM supplemented with 10% fetal bovine serum (FBS). Human mammary carcinoma MCF-7 cells were cultured in RPMI supplemented with 10% FBS. The U87 and U373 cells were cultured in DMEM culture medium (Lonza code 12-136F, Vervier, Belgium), while the SKMEL-28 and A549 cells were cultured in RPMI culture medium (Lonza; code 12-115F) supplemented with 10% heat-inactivated FBS (Lonza, FBS South America code DE14-801F). […] All cell lines were cultured in T25 flasks, maintained and grown at 37° C., 95% humidity, 5% CO2.
(§3) To evaluate antiproliferative properties of the synthesized compounds, the MTT assay was used. The cell lines were assessed by trypsinizing each cell line and seeding 4×10^3 cells per well into 96-well plates. All compounds were dissolved in DMSO at a concentration of either 100 mM or 50 mM prior to cell treatment. The cells were grown for 24 h and then treated with compounds at concentrations ranging from 0.04 to 100 μM and incubated for 48 h in 200 μL media. 20 μL of MTT reagent in serum free medium (5 mg/mL) was added to each well and incubated further for 2 h. Media was removed, and the resulting formazan crystals were re-solubilized in 200 μL of DMSO. A490 was measured using a Thermomax Molecular Device plate reader. The experiments were performed in quadruplicate and repeated at least twice for each compound per cell line. […]
In general terms: Tetrazolium dyes change colour on reduction, which living cells bring about.

Assay [2] has as its system UM-SCC22B head and neck metastases cells. Kind of assay: MTT antiproliferative assay, UM-SCC22B. It is filed as cell-based. The note with it: Homo sapiens, UMSCC22B, Table 1A, 48 h, read-out: Concentration required to reduce the viability of cells by 50%, UM-SCC22B. How it is done:
as §1

Assay [3] deals with UM-SCC22A head and neck cancer cells. Kind of assay: MTT antiproliferative assay, UM-SCC22A. It is filed as cell-based. As to conditions: Table 1A, 48 h, read-out: Concentration required to reduce the viability of cells by 50%, UM-SCC22A. How it is done: as §1
In assay [4] the test system is MCF-7 mammary gland adenocarcinoma cells. As to the kind of experiment: MTT antiproliferative assay, MCF-7. Type of assay: cell-based. The note with it: Homo sapiens, MCF7, MTT, ± SD, read-out: GI50 in vitro Values, MCF-7. In a few lines: (§4)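 Cells were seeded at 4×10^3 per well, grown 24 h, then treated at 0.04–100 μM for 48 h; HeLa in DMEM and MCF-7 in RPMI, each with 10% FBS. MTT for 2 h, formazan dissolved in DMSO, A490 read; quadruplicate, at least two repeats, 0.1% DMSO vehicle control and 1 μM phenyl arsine oxide as positive killing control.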

The subject of assay [5] is HeLa cervical adenocarcinoma cells. As to the kind of experiment: MTT antiproliferative assay, HeLa. The note with it: Homo sapiens, MTT, ± SD, read-out: GI50 in vitro Values, HeLa. Type of assay: cell-based. Summed up:
as §4

Assay [6] concerns UM-SCC10A head and neck cancer cells. As to the kind of experiment: MTT antiproliferative assay, UM-SCC10A. It is filed as cell-based. As to conditions: UMSCC-10A, Table 1A, 48 h, read-out: Concentration required to reduce the viability of cells by 50%, UM-SCC10A. How it is done: as §1
The subject of assay [7] is UM-SCC10B head and neck metastases cells. Kind of assay: MTT antiproliferative assay, UM-SCC10B. It is filed as cell-based. As to conditions: Table 1A, 48 h, read-out: Concentration required to reduce the viability of cells by 50%, UM-SCC10B. How it is done:
as §1

Assay [8] relates to A549 non-small-cell lung cancer cells. Kind of assay: MTT antiproliferative assay, A549. It is filed as cell-based. The note with it: Homo sapiens. How it is done:
as §1, §2
(§5) To evaluate antiproliferative properties of the synthesized compounds, the MTT assay was used. The cell lines were assessed by trypsinizing each cell line and seeding 4×10^3 cells per well into 96-well plates. All compounds were dissolved in DMSO at a concentration of either 100 mM or 50 mM prior to cell treatment. The cells were grown for 24 h and then treated with compounds at concentrations ranging from 0.04 to 100 μM and incubated for 48 h in 200 μL media. 20 μL of MTT reagent in serum free medium (5 mg/mL) was added to each well and incubated further for 2 h. Media was removed, and the resulting formazan crystals were re-solubilized in 200 μL of DMSO. A490 was measured using a Thermomax Molecular Device plate reader. The experiments were performed in quadruplicate and repeated at least twice for each compound per cell line. Cells treated with 0.1% DMSO were used as a control, and 1 μM phenyl arsine oxide (PAO) was used as a positive killing control.

For assay [9], the system named is Hs683 anaplastic oligodendroglioma cells. As to the kind of experiment: MTT antiproliferative assay, Hs683. Type of assay: cell-based. The note with it: Homo sapiens, Hs 683, Table 2, 48 h, read-out: GI50 in vitro values, Hs683. How it is done: as §1
A further assay relates to B16F10 melanoma cells. Kind of assay: MTT antiproliferative assay, B16F10. It is filed as cell-based. As to conditions: Mus musculus, B16-F10, Table 2, 48 h, read-out: GI50 in vitro values, B16F10. How it is done: as §1
In another assay the test system is SKMEL-28 melanoma cells. As to the kind of experiment: MTT antiproliferative assay, SKMEL-28. As to conditions: SK-MEL-28. It is filed as cell-based, human. How it is done:
as §1, §2, §3

A further assay concerns SKMEL melanoma cells. As to the kind of experiment: Quantitative videomicroscopy, SKMEL. The note with it: at MTT-based GI50 value. Type of assay: cell-based, human. An excerpt:
(§6) Poor prognoses of glioblastoma, melanoma and NSCLC patients are generally attributed to the drug resistant nature of these malignanciesand therefore it was encouraging that 7-deazahypoxanthines 13 and 18-23 were active against the U87 human glioblastoma and A549 NSCLC carcinoma cell lines. Since tubulin-targeting agents are generally poorly effective against cancer cells resistant to the induction of apoptosis, compound 22 was further evaluated against U373 human glioblastoma and SKMEL human melanoma cells, reported to display apoptosis resistance. […] Computer-assisted phase-contrast microscopy (quantitative videomicroscopy) was utilized to confirm cell death as the principal mechanism of action associated with this compound's in vitro growth inhibitory effects in these cell lines.
(§7) The effects of 22 on the viability of human U373 glioblastoma and SKMEL melanoma cells were characterized in vitro using computer-assisted phase contrast video microscopy, as described elsewhere.

Assay [10] deals with U373 glioblastoma cells. Kind of assay: Quantitative videomicroscopy, U373. Type of assay: cell-based, human. As to conditions: U373, at MTT-based GI50 value.
Source text: as §6, §7

The test system of the next assay is U-87 glioblastoma cells. As to the kind of experiment: MTT antiproliferative assay, U-87. Type of assay: cell-based. As to conditions: Homo sapiens, Table 6, 48 h, ± SD, read-out: GI50 in vitro Values, U-87. How it is done:
as §2, §5

`O=C(c1ccccc1)c1[nH]c2[nH]cnc(=O)c2c1-c1cncc(Br)c1` [Rig9, 6-Benzoyl-5-(5-bromopyridin-3-yl)-1H-pyrrolo[2,3-d]pyrimidin-4(7H)-one]: the GI50 (usually the concentration giving 50% growth inhibition) with U373 glioblastoma cells [1] (Homo sapiens, Table 2, 48 h, MTT, read-out: GI50 in vitro values, U373) was 30 nM; in assay [4] (Table 1, 48 h treatment) it was 87 ± 20 nM; in assay [5] (Table 1, 48 h treatment) it was 80 ± 25 nM; in assay [8] (Table 2, 48 h, read-out: GI50 in vitro values, A549) it was 20 nM; in [9], 20 nM; in the assay on B16F10 melanoma cells it was 40 nM. The GI50 in the assay with SKMEL-28 melanoma cells (Homo sapiens, Table 2, 48 h, MTT, read-out: GI50 in vitro values, SKMEL-28) came out at 20 nM. The IC50 in [2] is 20 nM; in assay [3], 120 nM; in assay [6], 90 nM; in [7], 130 nM.

Consider `Cc1nc(=O)c2c(-c3cncc(Br)c3)c(C(=O)c3ccccc3)[nH]c2[nH]1` [Compound 22, 6-Benzoyl-5-(5-bromopyridin-3-yl)-2-methyl-1H-pyrrolo[2,3-d]pyrimidin-4(7H)-one], for which the GI50 was 300 nM in the assay with U373 glioblastoma cells [1] (apoptosis-resistant U373 human glioblastoma, read-out: MTT-based GI50 value, U373); 610 ± 10 nM in assay [4] (Table 6, 48 h); 490 ± 50 nM in assay [5] (Table 6, 48 h); 2400 ± 600 nM with U-87 glioblastoma cells; 1100 ± 400 nM in [8] (Table 6, 48 h, ± SD, read-out: GI50 in vitro Values, A549); 300 nM with SKMEL-28 melanoma cells (apoptosis-resistant SKMEL human melanoma, read-out: MTT-based GI50 value, SKMEL). Also, the “mechanism of growth inhibition by videomicroscopy (in words)” value in the assay with SKMEL melanoma cells and with U373 glioblastoma cells [10] was “inhibited cancer cell proliferation by inducing cell death” throughout.
